Results published in patent US20230295115A1, “SUBSTITUTED ISOQUINOLINYLMETHYL AMIDES, ANALOGUES THEREOF, AND METHODS USING SAME” (priority 2020, published 2023).

system: HBV rcDNA; test: HepDE19 assay with bDNA quantitation of HBV rcDNA; type: cell-based, hepatitis B virus (HBV); settings: HepDE19 cells, 7 day incubation, rcDNA measured by Quantigene 2.0 bDNA assay, top concentration 25 μM; read-out: DE-19bDNA EC50
Protocol: HepDE19 assay with bDNA quantitation of HBV rcDNA:
HepDE19 (50,000 cells/well) were plated in 96-well collagen-coated tissue-culture treated microtiter plates in DMEM/F12 medium supplemented with 10% fetal bovine serum, 1% penicillin-streptomycin and 1 μg/mL tetracycline and incubated in a humidified incubator at 37° C. and 5% CO2 overnight. Next day, the cells were switched to fresh medium without tetracycline and incubated for 4 hours at 37° C. and 5% CO2. […] The final DMSO concentration in the assay was 0.5%. The plates were incubated for 7 days in a humidified incubator at 37° C. and 5% CO2. Following a 7 day-incubation, the level of rcDNA present in the inhibitor-treated wells was measured using a Quantigene 2.0 bDNA assay kit (Affymetrix, Santa Clara, CA) with HBV specific custom probe set and manufacturers instructions. Concurrently, the effect of compounds on cell viability was assessed using replicate plates, plated at a density of 5,000 cells/well and incubated for 4 days, to determine the ATP content as a measure of cell viability using the cell-titer glo reagent (CTG; Promega Corporation, Madison, WI) as per manufacturer's instructions.

Which EC50 does the source give for CC(c1c[nH]c(=O)c2cc(F)c(F)cc12)N(C)C(=O)[C@@H]1Cc2ccccc2CN1 (single isomer, unassigned) [Compound 20] here?
The EC50 was 9.2 µM.

With CC(c1c[nH]c(=O)c2cc(F)c(F)cc12)N(C)C(=O)c1cc2c([nH]1)CCC(F)(F)C2 (single isomer, unassigned) [Compound 88, N-(1-(6,7-Difluoro-1-oxo-1,2-dihydroisoquinolin-4-yl)ethyl)-5,5-difluoro-N-methyl-4,5,6,7-tetrahydro-1H-indole-2-carboxamide] as the compound, how does the EC50 read?
Its EC50 is 0.03 µM.

With CC(c1cn(C)c(=O)c2cc(F)c(F)cc12)N(C)C(=O)c1ccc(Br)c(F)c1 (single isomer, unassigned) [Compound 161, 4-bromo-N-(1-(6,7-difluoro-2-methyl-1-oxo-1,2-dihydroisoquinolin-4-yl)ethyl)-3-fluoro-N-methylbenzamide] as the compound, how does the EC50 read?
Its EC50 is 3.09 µM.

CC(c1c[nH]c(=O)c2c(F)c(F)ccc12)N(C)C(=O)C1Cc2c(F)cc(F)cc2N1 (stereo not drawn) [Compound 65, N-(1-(7,8-Difluoro-1-oxo-1,2-dihydroisoquinolin-4-yl)ethyl)-4,6-difluoro-N-methylindoline-2-carboxamide] was tested. Which EC50 did it give?
Its EC50 is 11 µM.

Which EC50 does the source give for COc1ncc(C(C)N(C)C(=O)c2cc3c(F)cccn3c2)c2cc(F)c(F)cc12 (single isomer, unassigned) [Compound 179, N-(1-(6,7-difluoro-1-methoxyisoquinolin-4-yl)ethyl)-8-fluoro-N-methylindolizine-2-carboxamide] here?
Its EC50 is 9.38 µM.

With CC(c1cn(C)c(=O)c2cc(F)c(F)cc12)N(C)C(=O)c1cc2c(F)cccn2c1 (single isomer, unassigned) [Compound 172, N-(1-(6,7-difluoro-2-methyl-1-oxo-1,2-dihydroisoquinolin-4-yl)ethyl)-8-fluoro-N-methylindolizine-2-carboxamide] as the compound, how does the EC50 read?
The EC50 was 0.09 µM.

For CC(c1c[nH]c(=O)c2cc(F)c(F)cc12)N(C)C(=O)c1cc2ccc(Cl)cn2c1 (single isomer, unassigned) [Compound 111, 6-Chloro-N-(1-(6,7-difluoro-1-oxo-1,2-dihydroisoquinolin-4-yl)ethyl)-N-methylindolizine-2-carboxamide], which EC50 is on record?
The EC50 was 1.4 µM.

With CCN(C(=O)c1cc2ccccc2[nH]1)C(C)c1c[nH]c(=O)c2cc(F)c(F)cc12 (single isomer, unassigned) [Compound 5, N-(1-(6,7-Difluoro-1-oxo-1,2-dihydroisoquinolin-4-yl)ethyl)-N-ethyl-1H-indole-2-carboxamide] as the compound, how does the EC50 read?
The EC50 was 1.7 µM.

How did the EC50 turn out when CC(c1c[nH]c(=O)c2cc(F)c(F)cc12)N(C)C(=O)c1cccc(C(F)F)c1 (single isomer, unassigned) [Compound 125, N-(1-(6,7-Difluoro-1-oxo-1,2-dihydroisoquinolin-4-yl)ethyl)-3-(difluoromethyl)-N-methylbenzamide] was run?
The EC50 was 24.8 µM.

How did the EC50 turn out when CC(c1c[nH]c(=O)c2cc(F)c(F)cc12)N(C)C(=O)c1cc2cc(Cl)ccn2c1 (single isomer, unassigned) [Compound 97, 7-Chloro-N-(1-(6,7-difluoro-1-oxo-1,2-dihydroisoquinolin-4-yl)ethyl)-N-methylindolizine-2-carboxamide] was run?
Its EC50 is 0.09 µM.

For CC(c1c[nH]c(=O)c2cc(F)c(F)cc12)N(C)C(=O)c1cc2c(F)cccc2[nH]1 (single isomer, unassigned) [Compound 8, N-(1-(6,7-Difluoro-1-oxo-1,2-dihydroisoquinolin-4-yl)ethyl)-4-fluoro-N-methyl-1H-indole-2-carboxamide], which EC50 is on record?
The EC50 was 0.02 µM.

Which EC50 does the source give for COc1ncc(C(C)N(C)C(=O)[C@@H]2Cc3ccccc3N2)c2cc(F)c(F)cc12 (single isomer, unassigned) [Compound 182] here?
Its EC50 is 24.7 µM.

CC(c1c[nH]c(=O)c2cc(F)c(F)cc12)N(C)C(=O)c1ccc(F)c(Cl)c1 (single isomer, unassigned) [Compound 136, 3-Chloro-N-(1-(6,7-difluoro-1-oxo-1,2-dihydroisoquinolin-4-yl)ethyl)-4-fluoro-N-methylbenzamide] was tested. Which EC50 did it give?
Its EC50 is 0.17 µM.

How did the EC50 turn out when COc1ncc(C(C)N(C)C(=O)[C@@H]2Cc3ccccc3N2)c2cc(F)c(F)cc12 (single isomer, unassigned) [Compound 181] was run?
Its EC50 is 0.29 µM.

CC(c1c[nH]c(=O)c2cc(F)c(F)cc12)N(C)C(=O)c1cc2ccc(F)cc2[nH]1 (single isomer, unassigned) [Compound 11, N-(1-(6,7-Difluoro-1-oxo-1,2-dihydroisoquinolin-4-yl)ethyl)-6-fluoro-N-methyl-1H-indole-2-carboxamide] was tested. Which EC50 did it give?
The EC50 was 1.2 µM.

Which EC50 does the source give for CC(c1c[nH]c(=O)c2cc(F)c(F)cc12)N(C)C(=O)c1cc2cc(Cl)ccn2c1 (single isomer, unassigned) [Compound 96, 7-Chloro-N-(1-(6,7-difluoro-1-oxo-1,2-dihydroisoquinolin-4-yl)ethyl)-N-methylindolizine-2-carboxamide] here?
Its EC50 is 4.6 µM.

For CC(C)CN(C(=O)c1cc2ccccc2[nH]1)C(C)c1c[nH]c(=O)c2cc(F)c(F)cc12 (single isomer, unassigned) [Compound 3, N-(1-(6,7-Difluoro-1-oxo-1,2-dihydroisoquinolin-4-yl)ethyl)-N-isobutyl-1H-indole-2-carboxamide], which EC50 is on record?
Its EC50 is 0.67 µM.

With COc1ncc(C(C)N(C)C(=O)c2ccc(Br)c(F)c2)c2cc(F)c(F)cc12 (single isomer, unassigned) [Compound 178, 4-Bromo-N-(1-(6,7-difluoro-1-methoxyisoquinolin-4-yl)ethyl)-3-fluoro-N-methylbenzamide] as the compound, how does the EC50 read?
The EC50 was 0.2 µM.

How did the EC50 turn out when CC(C)CN(C(=O)c1cc2ccccc2[nH]1)C(C)c1c[nH]c(=O)c2cc(F)c(F)cc12 (single isomer, unassigned) [Compound 4, N-(1-(6,7-Difluoro-1-oxo-1,2-dihydroisoquinolin-4-yl)ethyl)-N-isobutyl-1H-indole-2-carboxamide] was run?
Its EC50 is 0.01 µM.

How did the EC50 turn out when CC(c1c[nH]c(=O)c2cc(F)c(F)cc12)N(C)C(=O)c1ccc(F)c(Cl)c1 (single isomer, unassigned) [Compound 135, 3-Chloro-N-(1-(6,7-difluoro-1-oxo-1,2-dihydroisoquinolin-4-yl)ethyl)-4-fluoro-N-methylbenzamide] was run?
Its EC50 is 9.61 µM.

Which EC50 does the source give for CC(c1c[nH]c(=O)c2cc(F)c(F)cc12)N(C)C(=O)C1Cc2cc(F)ccc2N1 (stereo not drawn) [Compound 61, N-(1-(6,7-Difluoro-1-oxo-1,2-dihydroisoquinolin-4-yl)ethyl)-5-fluoro-N-methylindoline-2-carboxamide] here?
Its EC50 is 6.7 µM.

Which EC50 does the source give for CC(c1c[nH]c(=O)c2cc(F)c(F)cc12)N(C)C(=O)c1ccc(F)c(F)c1 (single isomer, unassigned) [Compound 138, N-(1-(6,7-Difluoro-1-oxo-1,2-dihydroisoquinolin-4-yl)ethyl)-3,4-difluoro-N-methylbenzamide] here?
The EC50 was 0.45 µM.

For CC(c1c[nH]c(=O)c2cc(F)c(F)cc12)N(C)C(=O)c1cc2ccccc2n1C (single isomer, unassigned) [Compound 44, N-(1-(6,7-Difluoro-1-oxo-1,2-dihydroisoquinolin-4-yl)ethyl)-N,1-dimethyl-1H-indole-2-carboxamide], which EC50 is on record?
Its EC50 is 0.3 µM.

same assay, conditions: Hepatitis B virus, HepDE19, 168 h, HepDE19 cells, 7 day incubation, rcDNA measured by Quantigene 2.0 bDNA assay, top concentration 25 μM; read-out: DE-19bDNA EC50

For CC(c1c[nH]c(=O)c2cc(F)c(F)cc12)N(C)C(=O)C1Nc2ccccc2C1(C)C (stereo not drawn) [Compound 112, N-(1-(6,7-Difluoro-1-oxo-1,2-dihydroisoquinolin-4-yl)ethyl)-N,3,3-trimethylindoline-2-carboxamide], which EC50 is on record?
The EC50 was 21 µM.

With C[C@H](c1c[nH]c(=O)c2ccccc12)N(C)C(=O)[C@@H]1Cc2ccccc2N1 [Compound 160, (S)-N-Methyl-N-((R)-1-(1-oxo-1,2-dihydroisoquinolin-4-yl)ethyl)indoline-2-carboxamide] as the compound, how does the EC50 read?
The EC50 was 0.39 µM.

With C[C@H](c1c[nH]c(=O)c2ccccc12)N(C)C(=O)c1cc2c(F)cccc2[nH]1 [Compound 156, (R)-4-Fluoro-N-methyl-N-(1-(1-oxo-1,2-dihydroisoquinolin-4-yl)ethyl)-1H-indole-2-carboxamide] as the compound, how does the EC50 read?
Its EC50 is 0.12 µM.

same assay, conditions: Hepatitis B virus, HepDE19, 168 h, read-out: DE-19bDNA EC50 (μM), HepDE19 cells, 7 day incubation, rcDNA measured by Quantigene 2.0 bDNA assay, top concentration 25 μM

Which EC50 does the source give for C[C@H](c1c[nH]c(=O)c2ccccc12)N(C)C(=O)c1cc2ccccn2c1 [Compound 152, (R)-N-Methyl-N-(1-(1-oxo-1,2-dihydroisoquinolin-4-yl)ethyl)indolizine-2-carboxamide] here?
The EC50 was 0.47 µM.

How did the EC50 turn out when C[C@H](c1c[nH]c(=O)c2ccccc12)N(C)C(=O)c1ccc(Br)cc1 [Compound 146, (R)-4-Bromo-N-methyl-N-(1-(1-oxo-1,2-dihydroisoquinolin-4-yl)ethyl)benzamide] was run?
The EC50 was 0.15 µM.

Which EC50 does the source give for C[C@H](c1c[nH]c(=O)c2cc(F)c(F)cc12)N(C)C(=O)c1cc2sc(Cl)cc2[nH]1 [Compound 186, (R)-2-Chloro-N-(1-(6,7-difluoro-1-oxo-1,2-dihydroisoquinolin-4-yl)ethyl)-N-methyl-4H-thieno[3,2-b]pyrrole-5-carboxamide] here?
Its EC50 is 0.03 µM.

same assay, conditions: read-out: DE-19bDNA EC50; HepDE19 cells, 7 day incubation, rcDNA measured by Quantigene 2.0 bDNA assay, top concentration 25 μM

CC(c1c[nH]c(=O)c2cc(F)c(F)cc12)N(C)C(=O)c1ccc(Cl)cc1 (single isomer, unassigned) [Compound 132, 4-Chloro-N-(1-(6,7-difluoro-1-oxo-1,2-dihydroisoquinolin-4-yl)ethyl)-N-methylbenzamide] was tested. Which EC50 did it give?
The EC50 was 0.06 µM.
